Entries after “also recorded” stand apart in the source; their conditions may differ.
Tests used:
[1] = biological target: T1, rat kidney aldose reductase (Rattus norvegicus, UniProt P07943); assay: In vitro inhibition of purified rat kidney aldose reductase (NADPH absorbance decrease at 340 nm); format: biochemical; details: for Inhibition type: from Lineweaver-Burk graph, substrate DL-glyceraldehyde; for IC50: purified rat kidney AR, 10 mM DL-glyceraldehyde, 0.5 mM NADPH, pH 6.2, from Activity%-[Inhibitor] graphs; for Inhibition effect (in words): rat kidney AR, compared to the other phenolic acids of the study
T1 construct: Purified rat kidney aldose reductase enzyme; from tissue; host or cells: rat kidney
Protocol: Aldose reductase activity was assayed by following the absorbance decrease of NADPH at 340 nm spectrophotometrically.
The dialyzed enzyme solution was loaded onto the DE-52 Cellulose anion exchange column previously equilibrated with 10 mM Na-phosphate buffer (pH 7.4). […] Eluted fractions were collected, and the enzyme activity was checked at 340 nm. The fractions with the enzyme activity were pooled and mixed with glycerol. Then this enzyme solution was loaded onto the Sephadex G-100 column equilibrated with 10 mM Na-phosphate buffer (pH 7.4). Fractions were analyzed for both protein amount (280 nm) and enzyme activity (340 nm). […] The enzyme activity was checked at 340 nm in collected fractions, and the tubes with enzyme activity were combined. All purification procedures were performed at 4 °C. SDS polyacrylamide gel electrophoresis was done to the control of enzyme purity.
In inhibition studies, aldose reductase activity was assayed by following the change in absorbance at 340 nm, spectrophotometrically. One millilitre of the reaction mix contained 0.2 M Na-phosphate buffer (pH = 6.2), 10 mM DL-glyceraldehyde, 0.5 mM NADPH and enzyme solution[45]. AR activity was measured in the presence of different concentrations of phenolic acids. A control sample without inhibitor was taken as 100%, and for each inhibitor, an Activity%-[Inhibitor] graphs were drawn. IC50 values were determined from Activity%-[Inhibitor] graphs. For determination of the Ki constant, three different phenolic acid concentrations were used, and DL-glyceraldehyde was also used as a substrate at five different concentrations. […] Analysis of data obtained was made by t-test and they are given as X ± SD.

[2] = test system: human placental aldose reductase; parameters: method as in PMID 2505942; details: cited from earlier work
[3] = Lineweaver-Burk graph, three inhibitor concentrations, five DL-glyceraldehyde concentrations, X ± SD
[4] = mixed-type inhibition, second constant, Lineweaver-Burk graph, X ± SD

SMILES	Ki [1, 3] [µM]	Inhibition type [1]	IC50 [1] [µM]	Ki [1, 4] [µM]	Ki' [1, 4] [µM]	Inhibition effect (in words) [1]	Inhibition effect (in words) [2]	Inhibition type [2]
O=C(O)c1cccc(O)c1 [3-Hydroxybenzoic acid, 3-hydroxybenzoic acid]	176 ± 24.5	Noncompetitive	150	–	–	–	–	–
O=C(O)c1cc(O)c(O)c(O)c1 [Gallic acid]	219 ± 56.3	Noncompetitive	176	–	–	weak inhibition effect	–	–
O=C(O)c1ccc(O)c(O)c1 [Protocatechuic acid, 3,4-dihydroxybenzoic acid]	46.3 ± 31.5	Noncompetitive	48	–	–	–	–	–
COc1cc(C(=O)O)cc(OC)c1O [Syringic acid]	107 ± 21.6	Noncompetitive	95	–	–	–	–	–
O=C(O)c1cc(O)cc(O)c1 [α-Resorcylic acid, 3,5-dihydroxybenzoic acid]	127 ± 22	Noncompetitive	110	–	–	–	–	–

The remaining molecules from weak to strong by Ki [1, 3], led by results:

Ki [1, 3] [µM]	Inhibition type [1]	IC50 [1] [µM]	Ki [1, 4] [µM]	Ki' [1, 4] [µM]	SMILES	Inhibition effect (in words) [1]	Inhibition effect (in words) [2]	Inhibition type [2]
103 ± 56.3	Noncompetitive	86	–	–	COc1cc(C(=O)O)ccc1O [Vanillic acid, 4-hydroxy-3-methoxybenzoic acid]	–	–	–
72.5 ± 29.9	Noncompetitive	69	–	–	COc1cc(C=CC(=O)O)ccc1O [Ferullic acid, 4-Hydroxy-3-methoxycinnamic acid]	–	–	–
53.1 ± 2	Uncompetitive	57	–	–	O=C(O)/C=C/c1ccc(O)cc1 [p-Coumaric acid, trans-4-Hydroxycinnamic acid]	–	–	–
52.2 ± 20.8	Noncompetitive	50	–	–	O=C(O)c1ccc(O)cc1 [4-Hydroxybenzoic acid]	–	–	–
43.4	Noncompetitive	33	–	–	COc1cc(C=CC(=O)O)cc(OC)c1O [Sinapic acid, 3,5-Dimethoxy-4-hydroxycinnamic acid]	–	–	–
1.56 ± 0.436	mixed type	5.47	28.05	28.05 ± 10.210	O=C(/C=C/c1ccc(O)c(O)c1)O[C@@H]1C[C@](O)(C(=O)O)C[C@@H](O)[C@H]1O [Chlorogenic acid]	strong inhibition effect	–	–
0.598 ± 0.148	Noncompetitive	0.5	–	–	O=C(OCC1OC(OC(=O)c2cc(O)c(O)c(OC(=O)c3cc(O)c(O)c(O)c3)c2)C(OC(=O)c2cc(O)c(O)c(OC(=O)c3cc(O)c(O)c(O)c3)c2)C(OC(=O)c2cc(O)c(O)c(OC(=O)c3cc(O)c(O)c(O)c3)c2)C1OC(=O)c1cc(O)c(O)c(OC(=O)c2cc(O)c(O)c(O)c2)c1)c1cc(O)c(O)c(OC(=O)c2cc(O)c(O)c(O)c2)c1 (stereo not shown) [Tannic acid]	strong inhibition effect; also recorded: potent inhibition effect	potent inhibitor	mixed type
